Data: patent publication US8754068B2, “Modified C-3 betulinic acid derivatives as HIV maturation inhibitors” (priority 2010, dated 2014)

system: recombinant NL4-3 virus (Renilla luciferase in nef, Gag P373S); assay: HIV cell culture assay (luciferase reporter virus in MT-2 cells); format: cell-based; settings: NL43
Protocol: HIV cell culture assay—MT-2 cells and 293T cells were obtained from the NIH AIDS Research and Reference Reagent Program. MT-2 cells were propagated in RPMI 1640 media supplemented with 10% heat inactivated fetal bovine serum, […]. The 293T cells were propagated in DMEM media supplemented with 10% heat inactivated fetal bovine serum (FBS), 100 units/ml penicillin G and 100 μg/ml streptomycin. The proviral DNA clone of NL4-3 was obtained from the NIH AIDS Research and Reference Reagent Program. A recombinant NL4-3 virus, in which a section of the nef gene from NL4-3 was replaced with the Renilla luciferase gene, was used as a reference virus. In addition, residue Gag P373 was converted to P373S. Briefly, the recombinant virus was prepared by transfection of the altered proviral clone of NL4-3. Transfections were performed in 293T cells using LipofectAMINE PLUS from Invitrogen (Carlsbad, Calif.), according to manufacturer's instruction. The virus was titered in MT-2 cells using luciferase enzyme activity as a marker. Luciferase was quantitated using the Dual Luciferase kit from Promega (Madison, Wis.), with modifications to the manufacturer's protocol. The diluted Passive Lysis solution was pre-mixed with the re-suspended Luciferase Assay Reagent and the re-suspended Stop & Glo Substrate (2:1:1 ratio). Fifty (50) μL of the mixture was added to each aspirated well on assay plates and luciferase activity was measured immediately on a Wallac TriLux (Perkin-Elmer). Antiviral activities of inhibitors toward the recombinant virus were quantified by measuring luciferase activity in cells infected for 4-5 days with NLRluc recombinants in the presence serial dilutions of the inhibitor. Table 1 is the key for the data in Table 2.

Structure (SMILES) | EC50
C=C(C)[C@@H]1CC[C@]2(CO)CC[C@]3(C)[C@H](CC[C@@H]4[C@@]5(C)CC=C(c6ccc(C(=O)O)c(O)c6)C(C)(C)[C@@H]5CC[C@]43C)[C@@H]12 [Example 5p, 2-hydroxy-4-((1R,3aS,5aR,5bR,7aR,11aS,11bR,13aR,13bR)-3a-(hydroxymethyl)-5a,5b,8,8,11a-pentamethyl-1-(prop-1-en-2-yl)-2,3,3a,4,5,5a,5b,6,7,7a,8,11,11a,11b,12,13,13a,13b-octadecahydro-1H-cyclopenta[a]chrysen-9-yl)benzoic acid] | < 1000 nM
C=C(C)[C@@H]1CC[C@]2(C(=O)O)CC[C@]3(C)[C@H](CC[C@@H]4[C@@]5(C)CC=C(c6ccc(C(=O)O)s6)C(C)(C)[C@@H]5CC[C@]43C)[C@@H]12 [Example 4n, 5-((1R,3aS,5aR,5bR,7aR,11aS,11bR,13aR,13bR)-3a-carboxy-5a,5b,8,8,11a-pentamethyl-1-(prop-1-en-2-yl)-2,3,3a,4,5,5a,5b,6,7,7a,8,11,11a,11b,12,13,13a,13b-octadecahydro-1H-cyclopenta[a]chrysen-9-yl)thiophene-2-carboxylic acid] | < 1000 nM
CC(C)[C@@H]1CC[C@]2(C(=O)O)CC[C@]3(C)[C@H](CC[C@@H]4[C@@]5(C)CC[C@H](c6cccc(C(=O)O)c6)C(C)(C)[C@@H]5CC[C@]43C)[C@@H]12 [Example 3a, (3aS,5aR,5bR,7aS,9S,11aS,13aR,13bR)-9-(3-carboxyphenyl)-1-isopropyl-5a,5b,8,8,11a-pentamethylicosahydro-1H-cyclopenta[a]chrysene-3a-carboxylic acid] | 2000 nM
C=C(C)[C@@H]1CC[C@]2(CO)CC[C@]3(C)[C@H](CC[C@@H]4[C@@]5(C)CC=C(c6ccc(C(=O)O)cc6F)C(C)(C)[C@@H]5CC[C@]43C)[C@@H]12 [Example 5k, 3-fluoro-4-((1R,3aS,5aR,5bR,7aR,11aS,11bR,13aR,13bR)-3a-(hydroxymethyl)-5a,5b,8,8,11a-pentamethyl-1-(prop-1-en-2-yl)-2,3,3a,4,5,5a,5b,6,7,7a,8,11,11a,11b,12,13,13a,13b-octadecahydro-1H-cyclopenta[a]chrysen-9-yl)benzoic acid] | < 1000 nM
C=C(C)[C@@H]1CC[C@]2(CO)CC[C@]3(C)[C@H](CC[C@@H]4[C@@]5(C)CC=C(c6ccc(O)cc6C)C(C)(C)[C@@H]5CC[C@]43C)[C@@H]12 [Example 5h, 4-((1R,3aS,5aR,5bR,7aR,11aS,11bR,13aR,13bR)-3a-(hydroxymethyl)-5a,5b,8,8,11a-pentamethyl-1-(prop-1-en-2-yl)-2,3,3a,4,5,5a,5b,6,7,7a,8,11,11a,11b,12,13,13a,13b-octadecahydro-1H-cyclopenta[a]chrysen-9-yl)-3-methylphenol] | > 1000 nM
C=C(C)[C@@H]1CC[C@]2(CO)CC[C@]3(C)[C@H](CC[C@@H]4[C@@]5(C)CC=C(c6csc(C(=O)O)c6)C(C)(C)[C@@H]5CC[C@]43C)[C@@H]12 [Example 5d, 4-((1R,3aS,5aR,5bR,7aR,11aS,11bR,13bR)-3a-(hydroxymethyl)-5a,5b,8,8,11a-pentamethyl-1-(prop-1-en-2-yl)-2,3,3a,4,5,5a,5b,6,7,7a,8,11,11a,11b,12,13,13a,13b-octadecahydro-1H-cyclopenta[a]chrysen-9-yl)thiophene-2-carboxylic acid] | < 1000 nM
C=C(C)[C@@H]1CC[C@]2(CO)CC[C@]3(C)[C@H](CC[C@@H]4[C@@]5(C)CC=C(c6cnc(C(=O)O)nc6)C(C)(C)[C@@H]5CC[C@]43C)[C@@H]12 [Example 5q, 5-((1R,3aS,5aR,5bR,7aR,11aS,11bR,13aR,13bR)-3a-(hydroxymethyl)-5a,5b,8,8,11a-pentamethyl-1-(prop-1-en-2-yl)-2,3,3a,4,5,5a,5b,6,7,7a,8,11,11a,11b,12,13,13a,13b-octadecahydro-1H-cyclopenta[a]chrysen-9-yl)pyrimidine-2-carboxylic acid] | > 1000 nM
C=C(C)[C@@H]1CC[C@]2(CO)CC[C@]3(C)[C@H](CC[C@@H]4[C@@]5(C)CC=C(c6ccc(NS(C)(=O)=O)cc6)C(C)(C)[C@@H]5CC[C@]43C)[C@@H]12 [Example 5i, N-(4-((1R,3aS,5aR,5bR,7aR,11aS,11bR,13aR,13bR)-3a-(hydroxymethyl)-5a,5b,8,8,11a-pentamethyl-1-(prop-1-en-2-yl)-2,3,3a,4,5,5a,5b,6,7,7a,8,11,11a,11b,12,13,13a,13b-octadecahydro-1H-cyclopenta[a]chrysen-9-yl)phenyl)methanesulfonamide] | > 1000 nM
C=C(C)[C@@H]1CC[C@]2(CO)CC[C@]3(C)[C@H](CC[C@@H]4[C@@]5(C)CC=C(c6ccc(S(N)(=O)=O)cc6)C(C)(C)[C@@H]5CC[C@]43C)[C@@H]12 [Example 5j, 4-((1R,3aS,5aR,5bR,7aR,11aS,11bR,13aR,13bR)-3a-(hydroxymethyl)-5a,5b,8,8,11a-pentamethyl-1-(prop-1-en-2-yl)-2,3,3a,4,5,5a,5b,6,7,7a,8,11,11a,11b,12,13,13a,13b-octadecahydro-1H-cyclopenta[a]chrysen-9-yl)benzenesulfonamide] | < 1000 nM
C=C(C)[C@@H]1CC[C@]2(CO)CC[C@]3(C)[C@H](CC[C@@H]4[C@@]5(C)CC=C(c6ccc(C(=O)O)c(C(=O)O)c6)C(C)(C)[C@@H]5CC[C@]43C)[C@@H]12 [Example 5t, 4-((1R,3aS,5aR,5bR,7aR,11aS,11bR,13aR,13bR)-3a-(hydroxymethyl)-5a,5b,8,8,11a-pentamethyl-1-(prop-1-en-2-yl)-2,3,3a,4,5,5a,5b,6,7,7a,8,11,11a,11b,12,13,13a,13b-octadecahydro-1H-cyclopenta[a]chrysen-9-yl)phthalic acid] | < 1000 nM
C=C(C)[C@@H]1CC[C@]2(CO)CC[C@]3(C)[C@H](CC[C@@H]4[C@@]5(C)CC=C(c6ccc(C(=O)O)cn6)C(C)(C)[C@@H]5CC[C@]43C)[C@@H]12 [Example 5u, 6-((1R,3aS,5aR,5bR,7aR,11aS,11bR,13aR,13bR)-3a-(hydroxymethyl)-5a,5b,8,8,11a-pentamethyl-1-(prop-1-en-2-yl)-2,3,3a,4,5,5a,5b,6,7,7a,8,11,11a,11b,12,13,13a,13b-octadecahydro-1H-cyclopenta[a]chrysen-9-yl)nicotinic acid] | < 1000 nM
C=C(C)[C@@H]1CC[C@]2(C(=O)O)CC[C@]3(C)[C@H](CC[C@@H]4[C@@]5(C)CC=C(c6ccc(O)cc6)C(C)(C)[C@@H]5CC[C@]43C)[C@@H]12 [Example 4f, (1R,3aS,5aR,5bR,7aR,11aS,11bR,13aR,13bR)-9-(4-hydroxyphenyl)-5a,5b,8,8,11a-pentamethyl-1-(prop-1-en-2-yl)-2,3,3a,4,5,5a,5b,6,7,7a,8,11,11a, 11b,12,13,13a,13b-octadecahydro-1H-cyclopenta[a]chrysene-3a-carboxylic acid] | < 1000 nM
C=C(C)[C@@H]1CC[C@]2(C(=O)O)CC[C@]3(C)[C@H](CC[C@@H]4[C@@]5(C)CC=C(c6cccc(C(=O)O)c6)C(C)(C)[C@@H]5CC[C@]43C)[C@@H]12 [Example 2a, (1R,3aS,5aR,5bR,7aR,11aS,13aR,13bR)-9-(3-carboxyphenyl)-5a,5b,8,8,11a-pentamethyl-1-(prop-1-en-2-yl)-2,3,3a,4,5,5a,5b,6,7,7a,8,11,11a,11b,12,13,13a,13b-octadecahydro-1H-cyclopenta[a]chrysene-3a-carboxylic acid] | > 1000 nM
C=C(C)[C@@H]1CC[C@]2(C(=O)O)CC[C@]3(C)[C@H](CC[C@@H]4[C@@]5(C)CC=C(c6ccccc6CCC(=O)O)C(C)(C)[C@@H]5CC[C@]43C)[C@@H]12 [Example 4l, (1R,3aS,5aR,5bR,7aR,11aS,11bR,13aR,13bR)-9-(2-(2-carboxyethyl)phenyl)-5a,5b,8,8,11a-pentamethyl-1-(prop-1-en-2-yl)-2,3,3a,4,5,5a,5b,6,7,7a,8,11,11a,11b,12,13,13a,13b-octadecahydro-1H-cyclopenta[a]chrysene-3a-carboxylic acid] | > 1000 nM
C=C(C)[C@@H]1CC[C@]2(C(=O)O)CC[C@]3(C)[C@H](CC[C@@H]4[C@@]5(C)CC=C(c6ccc(CCC(=O)O)cc6)C(C)(C)[C@@H]5CC[C@]43C)[C@@H]12 [Example 4a, (1R,3aS,5aR,5bR,7aR,11aS,11bR,13aR,13bR)-9-(4-(2-carboxyethyl)phenyl)-5a,5b,8,8,11a-pentamethyl-1-(prop-1-en-2-yl)-2,3,3a,4,5,5a,5b,6,7,7a,8,11,11a,11b,12,13,13a,13b-octadecahydro-1H-cyclopenta[a]chrysene-3a-carboxylic acid] | < 1000 nM
C=C(C)[C@@H]1CC[C@]2(C(=O)O)CC[C@]3(C)[C@H](CC[C@@H]4[C@@]5(C)CC=C(c6ccc(C(=O)O)cc6)C(C)(C)[C@@H]5CC[C@]43C)[C@@H]12 [Example 2b, (1R,3aS,5aR,5bR,7aR,11aS,13aR,13bR)-9-(4-carboxyphenyl)-5a,5b,8,8,11a-pentamethyl-1-(prop-1-en-2-yl)-2,3,3a,4,5,5a,5b,6,7,7a,8,11,11a,11b,12,13,13a,13b-octadecahydro-1H-cyclopenta[a]chrysene-3a-carboxylic acid] | < 1000 nM
